# Data: ChEMBL document CHEMBL5154826, “Discovery of the Clinical Candidate MAK683: An EED-Directed, Allosteric, and Selective PRC2 Inhibitor for the Treatment of Advanced Malignancies” (J Med Chem, 2022)
# The source made the active and inactive calls. No cut-off for these calls is given here.
# Columns and labels:
# KARPAS-422 [1] = assay: Antitumor activity against human Karpas-422 cells xenografted Athymic BALB/c nude mouse assessed as effect on tumor growth, at 10 to 300 mg/kg, po bid, treatment started at twenty fifth after implantation of cancer cells measured upto 55 days; format: functional, organism-based; conditions: dose 10-300 mg/kg, time <= 55.0 day, DDE = dose-dependent effect
# Mus musculus [2] = assay: Reduction of […] in tumor of human Karpas-422 cells xenografted Athymic BALB/c nude mouse tumor at 3 to 300 mg/kg, po bid for 10 days; format: functional, organism-based; conditions: dose 3-300 mg/kg, time 10.0 day, DDE = dose-dependent effect
# Mus musculus [3] = assay: Reduction of H3K27 level in tumor of human Karpas-422 cells xenografted Athymic BALB/c nude mouse at 3 to 300 mg/kg, po bid for 21 days; format: functional, organism-based; conditions: dose 3-300 mg/kg, time 21.0 day, DDE = dose-dependent effect
# Mus musculus [4] = assay: Reduction of H3K27 level in tumor of human Karpas-422 cells xenografted Athymic BALB/c nude mouse at 3 to 100 mg/kg, po bid measured after 14 days; format: functional, organism-based; conditions: dose 3-100 mg/kg, time 14.0 day, DDE = dose-dependent effect
# KARPAS-422 [5] = assay: Antitumor activity against human Karpas-422 cells xenografted Athymic NTac:NIH-Whn nude rat assessed as inhibition of cell growth at 0.3 to 60 mg/kg, po, qd upto 130 days; format: functional, organism-based; conditions: dose 0.3-60 mg/kg, time <= 130.0 day
# PBMC [6] = assay: In vivo inhibition of PRC2 in PBMC collected from human Karpas-422 cells xenografted Athymic NTac:NIH-Whn nude rat assessed as reduction in H3K27me3 level at 30 mg/kg, po, qd upto 4 weeks by FACS method; format: functional, organism-based; conditions: TDE = time-dependent effect
# PBMC [7] = assay: In vivo inhibition of PRC2 in PBMC collected from human Karpas-422 cells xenografted Athymic NTac:NIH-Whn nude rat assessed as complete recovery of H3K27me3 level at 30 mg/kg, po, qd treated for 4 weeks, followed by 4 weeks recovery period by FACS method; format: functional, organism-based
# Mus musculus [8] = assay: Reduction of H3K27 level in tumor of human Karpas-422 cells xenografted Athymic BALB/c nude mouse tumor at 20 mg/kg, po qd measured after 14 days; format: functional, organism-based; conditions: time 14.0 day
# [9] = biological target: T1, Alpha-2C adrenergic receptor (Homo sapiens, UniProt P18825); assay: Inhibition of alpha2c adrenergic receptor (unknown origin)
# T1 sequence (P18825 whole entry): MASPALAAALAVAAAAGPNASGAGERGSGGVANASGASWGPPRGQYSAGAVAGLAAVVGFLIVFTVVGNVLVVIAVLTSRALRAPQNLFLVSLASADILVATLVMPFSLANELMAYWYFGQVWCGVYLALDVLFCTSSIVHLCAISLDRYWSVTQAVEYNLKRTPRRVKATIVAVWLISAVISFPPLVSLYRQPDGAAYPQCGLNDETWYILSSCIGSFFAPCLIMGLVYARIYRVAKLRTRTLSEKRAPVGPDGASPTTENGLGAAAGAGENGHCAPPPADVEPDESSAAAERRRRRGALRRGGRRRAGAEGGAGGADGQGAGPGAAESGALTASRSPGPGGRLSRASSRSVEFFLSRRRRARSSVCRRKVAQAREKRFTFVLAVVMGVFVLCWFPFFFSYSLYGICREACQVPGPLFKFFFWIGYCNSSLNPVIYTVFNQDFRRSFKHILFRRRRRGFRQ
# [10] = Inhibition of PRC2 (unknown origin) assessed as reduction in H3K27 trimethylation using H3K27Me0 peptide (21 to 44 residues) as substrate by measuring SAH formation by LC-MS analysis; set-up: species or system Homo sapiens
# KARPAS-422 [11] = assay: Antiproliferative activity against human KARPAS-422 cells expressing EZH2 mutant assessed as inhibition of cell growth after 14 days by beckman coulter counting method; format: functional; conditions: Homo sapiens, KARPAS-422, 336 h; time 14 day
# [12] = Lipophilicity, logD of the compound at pH 7.4 by LC with tandem MS analysis; format: physicochemical; conditions: buffer, read-out: logD
# [13] = Dissociation constant, pKa of compound; format: physicochemical
# [14] = High throughput solubility of the compound at pH 6.8 after 16 to 24 hrs by MS/MS analysis; format: physicochemical; conditions: buffer, time 16-24 hrs
# Cytochrome P450 2C9 = Cytochrome P450 2C9 (Homo sapiens, UniProt P11712); assay: Inhibition of CYP2C9 in human liver microsomes using diclofenac as substrate incubated for 10 mins in presence of NADPH by LC-MS/MS analysis; format: ADME, Microsome
# Sequence of Cytochrome P450 2C9 (P11712 whole entry): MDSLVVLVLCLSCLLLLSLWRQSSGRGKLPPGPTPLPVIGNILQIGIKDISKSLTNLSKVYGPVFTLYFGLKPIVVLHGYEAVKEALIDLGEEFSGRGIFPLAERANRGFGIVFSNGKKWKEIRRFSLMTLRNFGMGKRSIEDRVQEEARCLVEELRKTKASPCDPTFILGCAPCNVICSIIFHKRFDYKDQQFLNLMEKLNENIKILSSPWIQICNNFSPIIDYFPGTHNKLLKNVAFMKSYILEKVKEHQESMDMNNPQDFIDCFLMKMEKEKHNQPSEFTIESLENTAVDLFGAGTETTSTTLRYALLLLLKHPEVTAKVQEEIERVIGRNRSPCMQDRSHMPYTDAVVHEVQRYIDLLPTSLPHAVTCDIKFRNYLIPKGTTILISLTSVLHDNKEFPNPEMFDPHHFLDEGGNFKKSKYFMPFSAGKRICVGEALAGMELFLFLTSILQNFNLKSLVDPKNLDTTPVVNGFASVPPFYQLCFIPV
# Cytochrome P450 2D6 = Cytochrome P450 2D6 (Homo sapiens, UniProt P10635); assay: Inhibition of CYP2D6 in human liver microsomes using bufuralol as substrate incubated for 10 mins in presence of NADPH by LC-MS/MS analysis; format: ADME, Microsome
# Sequence of Cytochrome P450 2D6 (P10635 whole entry): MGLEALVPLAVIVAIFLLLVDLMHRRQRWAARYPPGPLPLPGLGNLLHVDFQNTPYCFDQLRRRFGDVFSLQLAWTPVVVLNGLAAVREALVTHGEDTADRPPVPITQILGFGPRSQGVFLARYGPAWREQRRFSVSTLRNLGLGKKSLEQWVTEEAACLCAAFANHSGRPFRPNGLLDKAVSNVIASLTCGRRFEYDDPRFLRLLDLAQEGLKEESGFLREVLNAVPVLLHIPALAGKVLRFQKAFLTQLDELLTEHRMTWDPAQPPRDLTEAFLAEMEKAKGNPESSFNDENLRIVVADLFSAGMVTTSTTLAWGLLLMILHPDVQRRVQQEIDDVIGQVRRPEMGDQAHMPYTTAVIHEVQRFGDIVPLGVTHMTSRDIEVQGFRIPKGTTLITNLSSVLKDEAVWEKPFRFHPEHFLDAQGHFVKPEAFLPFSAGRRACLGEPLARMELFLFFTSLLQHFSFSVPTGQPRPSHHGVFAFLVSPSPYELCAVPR
# [15] = biological target: 3',5'-cyclic-AMP phosphodiesterase 4D (Homo sapiens, UniProt Q08499); assay: Inhibition of human Phosphodiesterase 4D
# Sequence of 3',5'-cyclic-AMP phosphodiesterase 4D (Q08499 whole entry): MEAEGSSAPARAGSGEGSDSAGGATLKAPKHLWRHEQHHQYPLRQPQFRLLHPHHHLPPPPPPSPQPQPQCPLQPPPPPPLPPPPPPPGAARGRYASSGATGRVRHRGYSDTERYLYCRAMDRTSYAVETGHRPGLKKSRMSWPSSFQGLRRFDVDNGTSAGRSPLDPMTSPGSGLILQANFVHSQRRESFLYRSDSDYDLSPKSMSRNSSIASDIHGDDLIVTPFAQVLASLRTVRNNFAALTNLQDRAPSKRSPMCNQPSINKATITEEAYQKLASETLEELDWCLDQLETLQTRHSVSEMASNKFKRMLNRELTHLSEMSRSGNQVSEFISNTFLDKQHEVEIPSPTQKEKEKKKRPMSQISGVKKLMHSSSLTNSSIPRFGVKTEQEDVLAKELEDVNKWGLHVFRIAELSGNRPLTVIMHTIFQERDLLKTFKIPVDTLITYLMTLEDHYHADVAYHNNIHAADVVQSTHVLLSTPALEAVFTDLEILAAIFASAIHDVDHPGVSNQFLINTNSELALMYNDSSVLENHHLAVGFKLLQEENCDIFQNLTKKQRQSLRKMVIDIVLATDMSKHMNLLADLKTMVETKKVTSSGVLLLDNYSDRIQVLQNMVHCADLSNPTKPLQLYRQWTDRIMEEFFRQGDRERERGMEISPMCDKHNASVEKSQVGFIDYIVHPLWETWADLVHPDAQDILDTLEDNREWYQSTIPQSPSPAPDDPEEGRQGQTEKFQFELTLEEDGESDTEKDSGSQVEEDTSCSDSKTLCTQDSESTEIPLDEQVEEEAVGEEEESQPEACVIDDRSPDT
# Pfeiffer = assay: Antiproliferative activity against human Pfeiffer cells assessed as inhibition of cell growth after 6 days by celltitre-glo assay; format: functional; conditions: 144 h, time 6 day
# cells = conditions: Homo sapiens, G-401, 48 h
# Description: Inhibition of PRC2 in human G-401 cells assessed as H3K27 methylation status incubated for 48 hrs by ELISA method
# [16] = High throughput solubility of the compound at pH 7 after 16 to 24 hrs by MS/MS analysis; format: physicochemical; conditions: buffer, time 16-24 hrs
# [17] = High throughput solubility of the compound at pH 4 after 16 to 24 hrs by MS/MS analysis; format: physicochemical; conditions: buffer, time 16-24 hrs
# [18] = Permeability across apical to basolateral side in human Caco-2 cells at 10 uM incubated for 2 hrs by LC/MS/MS analysis; format: ADME, cell-based; conditions: Caco-2, read-out: permeability
# [19] = Efflux ratio of apparent permeability across basolateral to apical side over apical to basolateral side in human Caco-2 cells at 10 uM incubated for 2 hrs by LC/MS/MS analysis; format: ADME, cell-based
# [20] = Dose normalized AUC in Sprague-Dawley rat at 2 mg/kg, po; format: ADME, organism-based; conditions: in vivo
# [21] = Terminal half life in Sprague-Dawley rat at 2 mg/kg, po; format: ADME, organism-based; conditions: in vivo, read-out: beta t1/2 (converted)
# [22] = Oral bioavailability in Sprague-Dawley rat at 2 mg/kg; format: ADME, organism-based; conditions: in vivo
# Cytochrome P450 3A4 = Cytochrome P450 3A4 (Homo sapiens, UniProt P08684); assay: Inhibition of CYP3A4 in human liver microsomes using midazolam as substrate incubated for 10 mins in presence of NADPH by LC-MS/MS analysis; format: ADME, Microsome
# Sequence of Cytochrome P450 3A4 (P08684 whole entry): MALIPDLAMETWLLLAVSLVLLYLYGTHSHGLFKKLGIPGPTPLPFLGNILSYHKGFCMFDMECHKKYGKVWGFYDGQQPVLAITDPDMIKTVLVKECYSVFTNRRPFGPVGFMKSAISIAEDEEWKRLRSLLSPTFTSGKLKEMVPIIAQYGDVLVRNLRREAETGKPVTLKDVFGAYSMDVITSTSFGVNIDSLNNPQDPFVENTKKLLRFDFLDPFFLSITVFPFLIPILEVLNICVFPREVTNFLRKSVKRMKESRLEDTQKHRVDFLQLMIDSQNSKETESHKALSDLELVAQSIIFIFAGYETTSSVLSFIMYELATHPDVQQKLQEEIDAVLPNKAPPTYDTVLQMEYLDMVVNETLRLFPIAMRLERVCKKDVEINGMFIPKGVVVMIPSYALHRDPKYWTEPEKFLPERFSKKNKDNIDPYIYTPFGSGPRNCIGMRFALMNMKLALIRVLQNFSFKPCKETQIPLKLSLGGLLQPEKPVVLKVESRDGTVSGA
structure (smiles),measurement,setting,value
Cc1ncccc1-c1cnc(NCc2c(F)ccc3c2CCO3)n2cnnc12,Activity,KARPAS-422 [1],Dde
same,Activity,Mus musculus [2],Dde
same,Activity,Mus musculus [3],Dde
same,Activity,Mus musculus [4],Dde
same,Activity,KARPAS-422 [5],Active
same,inhibition,PBMC [6],Tde
same,inhibition,PBMC [7],Active
same,Activity,Mus musculus [8],Active
c1cc(CNc2ncc(-c3ccncc3)c3nncn23)c2c(c1)OCC2,IC50,[9],> 30 µM
same,IC50,[10],0.017 µM
same,GI50,KARPAS-422 [11],0.01 µM
same,logD,[12],2.5
same,pKa,[13],5.4
same,solubility,[14],5 µM
same,IC50,Cytochrome P450 2C9,> 50 µM
same,IC50,Cytochrome P450 2D6,0.2 µM
same,IC50,[15],10 µM
CN(C)Cc1ccc(-c2cnc(NCc3cccc4c3OCO4)n3cnnc23)cc1,IC50,[10],15 µM
same,GI50,Pfeiffer,1.3 µM
same,IC50,cells,260 µM
Cc1ncccc1-c1cnc(NCc2c(F)ccc3c2CCO3)n2cnnc12.Cl,solubility,[16],69 µM
same,solubility,[17],494 µM
COc1cccc(F)c1CNc1ccc(-c2ccc(C)nc2C)c2nncn12,IC50,[10],0.023 µM
same,solubility,[14],162 µM
same,IC50,Cytochrome P450 2D6,25 µM
CN(C)Cc1ccc(-c2cnc(NCc3cccc4c3CCO4)n3cnnc23)cc1,IC50,[10],20 µM
same,GI50,Pfeiffer,0.067 µM
same,IC50,cells,14 µM
c1cncc(-c2cnc(NCc3cccc4c3CCO4)n3cnnc23)c1,IC50,[9],3.9 µM
same,IC50,[10],0.024 µM
same,GI50,KARPAS-422 [11],0.012 µM
same,logD,[12],2.6
same,pKa,[13],4.5
same,solubility,[14],15 µM
same,"Papp A→B at 2 h, 10 µM",[18],30 ×10⁻⁶ cm/s
same,"efflux ratio at 2 h, 10 µM",[19],0.96
same,AUC/dose,[20],5790 nM·h
same,half-life,[21],1.5 h
same,bioavailability,[22],71%
same,IC50,Cytochrome P450 3A4,29 µM
same,IC50,Cytochrome P450 2C9,12 µM
same,IC50,Cytochrome P450 2D6,0.1 µM
same,IC50,[15],2.6 µM
same,IC50,cells,0.033 µM
Cc1ccc(-c2cnc(NCc3c(F)ccc4c3CCO4)n3cnnc23)cn1,IC50,[10],0.019 µM
same,solubility,[14],112 µM
same,IC50,Cytochrome P450 2D6,7.4 µM
COc1cccc(CNc2ncc(-c3ccc(CN(C)C)cc3)c3nncn23)c1,IC50,[10],110 µM
same,GI50,Pfeiffer,2.97 µM
same,IC50,cells,320 µM
Cc1ccc(-c2cnc(NCc3c(F)ccc4c3CCO4)n3cnnc23)c(C)n1,IC50,[10],0.005 µM
same,solubility,[14],308 µM
same,IC50,Cytochrome P450 2D6,31 µM
COc1cccc(F)c1CNc1ccc(-c2cccnc2C)c2nncn12,IC50,[10],0.011 µM
same,solubility,[14],265 µM
same,IC50,Cytochrome P450 2D6,> 50 µM
Fc1ccc2c(c1CNc1ncc(-c3cccnc3)c3nncn13)CCO2,solubility,[14],85 µM
same,IC50,Cytochrome P450 2D6,0.019 µM
CN(C)Cc1ccc(-c2cnc(NCc3cccc4c3OCC4)n3cnnc23)cc1,IC50,[10],2600 µM
COc1cccc(F)c1CNc1ccc(-c2cccnc2)c2nncn12,IC50,[10],0.016 µM
same,solubility,[14],22 µM
same,IC50,Cytochrome P450 2D6,0.4 µM
